Data published in patent US20220280508A1 (priority 2019, published 2022).
Entries after “also recorded” stand apart in the source; their conditions may differ. Marks after values point to notes of the source that are not given here.

Tests used:
[1] = test system: iNOS; type: cell-based, Mouse
[2] = test system: influenza; conditions: human, in vivo
[3] = test system: PR8 influenza virus; conditions: mouse, in vivo
[4] = test system: Macrophage RAW264.7
[5] = test system: TNF-α, IL-1α, IL-6
[6] = test system: HSV-1; type: in vivo, Kunming mice; conditions: n 15
[7] = test system: Staphylococcus aureus; type: in vivo, ICR mice; conditions: n = 10
[8] = test system: Streptococcus pneumoniae; type: in vivo, ICR mice; conditions: n = 10
[9] = test system: Mycoplasma pneumoniae (ATCCFH15531); type: in vivo, BALB/C mice
[10] = test system: Pseudomonas aeruginosa; type: in vivo, BAL B/C male mice; conditions: 14 days

Compound: 6S-5-methyltetrahydrofolate calcium
- expression of iNOS in macrophages induced by LPS [1]: did not affect expression of iNOS; also recorded: almost no effect
- Mean disappearance time: Cough [2]: 35.7 h
- Mean disappearance time: Dizziness and fullness in head [2]: 28.5 h
- Mean disappearance time: Dry and itchy throat [2]: 15.0 h
- Mean disappearance time: Fatigue [2]: 14.1 h
- Mean disappearance time: Headache [2]: 13.7 h
- Mean disappearance time: Inappetence [2]: 13.0 h
- Mean disappearance time: Intolerance of cold and cold limbs [2]: 10.0 h
- Mean disappearance time: Low fever [2]: 10.0 h
- Mean disappearance time: Muscular soreness [2]: 14.9 h
- Mean disappearance time: Nasal stuffiness [2]: 23.0 h
- Mean disappearance time: Running nose [2]: 20.6 h
- Mean disappearance time: Sneezing [2]: 18.1 h
- Mean disappearance time: Sore throat [2]: 29.4 h
- Mean time: Basic rehabilitation [2]: 27.4 h
- Mean time: Complete rehabilitation [2]: 32.9 h
- disappearance time of symptoms: Dry and itchy throat [2]: 15 h
- disappearance time of symptoms: Inappetence [2]: 13 h
- disappearance time of symptoms: Intolerance of cold and cold limbs [2]: 10 h
- disappearance time of symptoms: Low fever [2]: 10 h
- time in which the patients' influenza almost all healed [2]: ≤ 2 days
- condition of the administration group (body weight, body temperature, food intake, water intake, survival curves) [3]: greatly improved
- secretion of NO in macrophages [4]: promote the secretion of NO
- expression of macrophages and inflammatory factors induced by LPS [5]: no significant effect

Compound: Nc1nc2c(ncn2COCCO)c(=O)[nH]1 [Acyclovir, acyclovir]
- Mortality [6]: 60%
- Number of deaths, 48 h [6]: 0
- Number of deaths, D4 [6]: 4
- Number of deaths, D7 [6]: 5

Compound: CC1(C)S[C@@H]2[C@H](NC(=O)[C@H](N)c3ccc(O)cc3)C(=O)N2[C@H]1C(=O)O [Amoxicillin, amoxicillin]
- Survival rate, Staphylococcus aureus [7]: 70** %
- Survival rate, Streptococcus pneumoniae [8]: 50* %

Compound: NC(=O)c1ccc[n+]([C@@H]2O[C@H](COP(=O)([O-])O)[C@@H](O)[C@H]2O)c1 [NMN, nicotinamide mononucleotide]
- expression of iNOS in macrophages induced by LPS [1]: did not affect expression of iNOS; also recorded: almost no effect

Compound: CC[C@H]1OC(=O)[C@H](C)[C@@H](O[C@H]2C[C@@](C)(OC)[C@@H](O)[C@H](C)O2)[C@H](C)[C@@H](O[C@@H]2O[C@H](C)C[C@H](N(C)C)[C@H]2O)[C@](C)(O)C[C@@H](C)CN(C)[C@H](C)[C@@H](O)[C@]1(C)O [azithromycin]
- Histopathological examination of the lung tissue ([9]; 10 days): Mild interstitial pneumonia
- Splenic index ([9]; mouse, in vivo): 4.515 ± 0.982 mg/g
- Thymic index ([9]; mouse, in vivo): 3.818 ± 1.232 mg/g

Compound: O=C1O[C@H]([C@@H](O)CO)C(=O)C1=O [dehydroascorbic acid]
- expression of iNOS in macrophages induced by LPS [1]: almost no effect

Compound: N[C@@H](CCC(=O)N[C@@H](CS)C(=O)NCC(=O)O)C(=O)O [glutathione, reference compound]
- expression of iNOS in macrophages induced by LPS [1]: did not affect expression of iNOS; also recorded: almost no effect

Compound: C[C@@H](O)[C@H]1C(=O)N2C(C(=O)O)=C(S[C@@H]3CN[C@H](C(=O)N(C)C)C3)[C@H](C)[C@H]12 [meropenem]
- survival of mice infected with the fatal dose of Pseudomonas aeruginosa [10]: 100%

Compound: penicillin
- survival of mice infected with the fatal dose of Pseudomonas aeruginosa [10]: all the mice in the penicillin group died
